Data published in ChEMBL document CHEMBL1201862, “PubChem BioAssay data set” (2004).
Structures can show the parent of a compound that is named as a salt.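 Grown in 96-well plates, cells were treated for 48 hours with each compound at five concentrations. Insufficient inhibition: endpoint recorded as highest concentration tested. Here, GI50 denotes the concentration required for 50% inhibition of growth.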 Calls of active or inactive are those of the source. No stated cut-off is given here; in the data, active = GI50 up to about 1.1 µM and inactive = higher.

How the values were obtained:
Assay in all cases: NCI-60 cell line screen, 48 h
CAKI-1 = system: CAKI-1
EKVX = system: EKVX
HT-29 = system: HT-29
IGROV-1 = system: IGROV-1
K562 = system: K562
NCI-H23 = system: NCI-H23
NCI-H460 = system: NCI-H460
OVCAR-8 = system: OVCAR-8
SF-539 = system: SF-539
SK-MEL-2 = system: SK-MEL-2
SK-MEL-5 = system: SK-MEL-5
SNB-19 = system: SNB-19
TK-10 = system: TK-10
U-251 = system: U-251
UO-31 = system: UO-31
LOX IMVI = system: LOX IMVI

Measured: GI50

O=c1[nH]c(C2CCCCC2)nc2c(Cl)cccc12
inactive: CAKI-1 > 100 µM | EKVX 26.1 µM | HT-29 > 100 µM | IGROV-1 > 100 µM | K562 > 100 µM | NCI-H23 > 100 µM | NCI-H460 > 100 µM | OVCAR-8 > 100 µM | SF-539 > 100 µM | SK-MEL-2 > 100 µM | SK-MEL-5 > 100 µM | SNB-19 > 100 µM | TK-10 > 100 µM | U-251 > 100 µM | UO-31 > 100 µM

CCCCN(CC)C(=O)C(=O)Cc1nc2ccc(C(=O)c3ccccc3)cc2nc1O
inactive: CAKI-1 54.3 µM | EKVX > 63.2 µM | HT-29 57.5 µM | IGROV-1 > 100 µM | K562 19.1 µM | LOX IMVI > 84.7 µM | NCI-H23 57.9 µM | NCI-H460 13.6 µM | OVCAR-8 > 100 µM | SF-539 98.9 µM | SK-MEL-5 50.1 µM | SNB-19 98.6 µM | TK-10 > 84.5 µM | U-251 73.1 µM | UO-31 33.3 µM

COC(=O)OCC1OC(N2C(=O)NC(=O)C(I)C2N=[N+]=[N-])CC1OC(=O)OC (stereo not drawn)
inactive: CAKI-1 > 100 µM | HT-29 > 100 µM | IGROV-1 > 100 µM | K562 > 100 µM | LOX IMVI > 100 µM | NCI-H23 > 100 µM | NCI-H460 > 100 µM | OVCAR-8 > 100 µM | SF-539 > 100 µM | SK-MEL-5 > 100 µM | SNB-19 > 100 µM | TK-10 > 100 µM | U-251 > 100 µM | UO-31 > 100 µM

Cn1c(=O)c2[nH]cnc2n(CC(=O)O)c1=O
inactive: CAKI-1 > 100 µM | EKVX > 100 µM | HT-29 > 100 µM | IGROV-1 > 100 µM | K562 > 100 µM | NCI-H23 > 100 µM | NCI-H460 > 100 µM | OVCAR-8 > 100 µM | SF-539 > 100 µM | SK-MEL-2 > 100 µM | SK-MEL-5 > 100 µM | SNB-19 > 100 µM | TK-10 > 100 µM | U-251 > 100 µM | UO-31 > 100 µM

Nc1nc(NCCO)c(N=O)c(=O)[nH]1
inactive: CAKI-1 > 100 µM | EKVX > 100 µM | HT-29 > 100 µM | IGROV-1 > 100 µM | K562 > 100 µM | LOX IMVI > 100 µM | NCI-H460 > 100 µM | OVCAR-8 > 100 µM | SF-539 > 100 µM | SK-MEL-2 > 100 µM | SK-MEL-5 > 100 µM | TK-10 > 100 µM | U-251 > 100 µM | UO-31 > 100 µM

O=C(Cc1c(C(=O)Nc2ccccc2)sc(C(=O)Nc2ccccc2)c1CC(=O)Nc1ccccc1)Nc1ccccc1
inactive: CAKI-1 > 100 µM | EKVX > 100 µM | HT-29 > 100 µM | IGROV-1 > 100 µM | K562 > 100 µM | LOX IMVI > 100 µM | NCI-H23 > 100 µM | NCI-H460 > 100 µM | OVCAR-8 > 100 µM | SF-539 > 100 µM | SK-MEL-5 > 100 µM | SNB-19 > 100 µM | TK-10 > 100 µM | U-251 > 100 µM | UO-31 > 100 µM

CC(C)(C)c1cc(C(O)(C(F)(F)F)C(F)(F)F)c2c(c1)C(C(F)(F)F)(C(F)(F)F)OC(C(C)(C)C)N2 (stereo not drawn)
inactive: CAKI-1 3.12 µM | EKVX 4.22 µM | HT-29 2.69 µM | IGROV-1 4.95 µM | K562 2.39 µM | NCI-H23 2.64 µM | NCI-H460 3.27 µM | OVCAR-8 3.05 µM | SF-539 2.55 µM | SK-MEL-2 2.55 µM | SK-MEL-5 1.57 µM | SNB-19 5.79 µM | TK-10 3.27 µM | U-251 3.61 µM | UO-31 7.55 µM

CCCNC(=S)NNC(=O)CSc1nc(-c2ccccc2)c(-c2ccccc2)[nH]1
inactive: CAKI-1 33.3 µM | EKVX 37 µM | HT-29 42 µM | IGROV-1 65 µM | LOX IMVI 48.2 µM | NCI-H23 76 µM | NCI-H460 39.9 µM | OVCAR-8 73.1 µM | SF-539 90.6 µM | SK-MEL-2 > 100 µM | SK-MEL-5 25.9 µM | SNB-19 88.1 µM | TK-10 70.5 µM | U-251 56.1 µM | UO-31 30.8 µM

COC(=O)/C=C(\C(=O)OC)c1c2c3c(cc(OC)c(OC)c3c3ccccc13)CCN2C
inactive: EKVX 64.6 µM | HT-29 38.5 µM | IGROV-1 26.8 µM | K562 26.2 µM | LOX IMVI 49.5 µM | NCI-H23 42.2 µM | NCI-H460 35.9 µM | OVCAR-8 45.7 µM | SF-539 27.5 µM | SK-MEL-2 35.4 µM | SK-MEL-5 13.8 µM | SNB-19 35.5 µM | TK-10 48.4 µM | U-251 39 µM | UO-31 46.2 µM

CC1CC[P+](c2ccccc2)(c2ccccc2)CC1
inactive: EKVX 68.7 µM | HT-29 79.3 µM | IGROV-1 98.2 µM | K562 91.6 µM | LOX IMVI 51.3 µM | NCI-H23 72.6 µM | NCI-H460 > 100 µM | OVCAR-8 > 100 µM | SF-539 78.3 µM | SK-MEL-2 77.3 µM | SK-MEL-5 20.8 µM | SNB-19 92.3 µM | TK-10 > 100 µM | U-251 30.5 µM | UO-31 > 100 µM

CC/C(=N\NS(=O)(=O)c1ccccc1)c1ccccc1
inactive: CAKI-1 > 100 µM | EKVX > 100 µM | HT-29 > 100 µM | IGROV-1 > 100 µM | K562 > 100 µM | LOX IMVI > 100 µM | NCI-H23 > 100 µM | NCI-H460 > 100 µM | OVCAR-8 > 100 µM | SF-539 > 100 µM | SK-MEL-2 > 100 µM | SK-MEL-5 > 100 µM | TK-10 > 100 µM | U-251 > 100 µM | UO-31 > 100 µM

COc1cc2[nH]c3c(c2cc1OC)CCN[C@]31CC[C@]2(CC3c4c(cc(OC)c(O)c42)CCN3C)C[C@H]1OC (stereo partly drawn)
inactive: CAKI-1 34.4 µM | EKVX 55.7 µM | HT-29 22.3 µM | IGROV-1 22.5 µM | K562 11.6 µM | LOX IMVI 24.3 µM | NCI-H23 65.5 µM | NCI-H460 23.8 µM | OVCAR-8 19.6 µM | SF-539 17.1 µM | SK-MEL-5 15 µM | SNB-19 34.8 µM | TK-10 21.6 µM | U-251 18 µM | UO-31 > 10 µM

COC(=O)C1=CO[C@@H](C)[C@@H]2Cn3ccc4c5ccccc5nc-4c3C[C@H]12 [ALSTONINE HYDROCHLORIDE]
inactive: EKVX > 100 µM | HT-29 > 100 µM | IGROV-1 > 100 µM | K562 55.2 µM | LOX IMVI > 100 µM | NCI-H23 > 100 µM | NCI-H460 > 100 µM | OVCAR-8 > 100 µM | SF-539 > 100 µM | SK-MEL-2 > 100 µM | SK-MEL-5 61.2 µM | SNB-19 > 100 µM | TK-10 > 100 µM | U-251 > 100 µM | UO-31 > 100 µM
